In this assay the test system is E. coli. The experiment in a line: MIC versus efflux impaired and porin deficient strains. Format: cell-based. The settings on record: Escherichia coli. As for the experimental part:
MIC determinations were performed using the broth microdilution method and in line with CLSI guidelines M07 and M100 (refs. [37],[38]). Bacterial inocula were prepared by diluting a 0.5 McFarland suspension in CAMHB or lysogeny broth (LB) specifically for A. baylyi isolates. […] MIC values of all of the tested antibiotics were read as the lowest compound concentration inhibiting bacterial growth by naked eye or beyond which the OD600 ceased to decrease.

Each structure is given as a SMILES string. Converted amounts (≈) assume the structure as drawn. Some results are limits rather than exact numbers.

`CN1C(=O)[C@H](CCCCN)NC(=O)[C@H](CCCN)NCc2cccnc2Sc2c(Cl)ccc(Cl)c2CNC(=O)[C@@H]1Cc1c[nH]c2ccccc12` [RO7075573]: the MIC (E. coli 7623, WT, CAMHB, 100% inhibition, n = 1) was over 64 µg/mL; the MIC (E. coli 7623-, efflux impaired, Δ tolC) came out at 32 µg/mL (≈ 43.3 µM); the MIC (E. coli R1535, porin deficient, Δ (OmpC; OmpF)) is over 64 µg/mL.

A word on the MIC: it is the lowest concentration that inhibits growth of the organism. A high value points to weaker potency.

(Values after PMC10794144, “A novel antibiotic class targeting the lipopolysaccharide transporter” (Nature, 2024).)
